Laboratory results taken from PubChem BioAssay AID2060890 (Molecular Pharmacology Branch, DTP, NCI, 2025).
pIC50: −log10 of the molar value.

Test system: LG0703-F948-PDC complex spheroid viability
Assay: Anticancer human tumor LG0703-F948-PDC patient-derived lung adenocarcinoma cell line growth inhibition [RAS]
Settings: for pIC50: curve of first compound; for viability, T/C: stronger effect = lower value
Summary of the method: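 Multi-cell-type spheroids: tumor cells plus HUVEC endothelial cells and mesenchymal stem cells. RAS-pathway inhibitors were combined with targeted agents, each dosed in half-log steps down from clinical Cmax, or from 10 microM when Cmax was unknown.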

[1] = second compound 0.00316 µM, first compound 0.0316 µM
[2] = second compound 0.00316 µM, first compound 0.1 µM
[3] = second compound 0.00316 µM, first compound 0.316 µM
[4] = second compound 0.00316 µM, first compound 1 µM
[5] = second compound 0.00316 µM, first compound 3.16 µM
[6] = second compound 0.00316 µM, first compound 10 µM
[7] = second compound 0.01 µM, first compound 0.0316 µM
[8] = second compound 0.01 µM, first compound 0.1 µM
[9] = second compound 0.01 µM, first compound 0.316 µM
[10] = second compound 0.01 µM, first compound 1 µM
[11] = second compound 0.01 µM, first compound 3.16 µM
[12] = second compound 0.01 µM, first compound 10 µM
[13] = second compound 0.0316 µM, first compound 0.0316 µM
[14] = second compound 0.0316 µM, first compound 0.1 µM
[15] = second compound 0.0316 µM, first compound 0.316 µM
[16] = second compound 0.0316 µM, first compound 1 µM
[17] = second compound 0.0316 µM, first compound 3.16 µM
[18] = second compound 0.0316 µM, first compound 10 µM
[19] = second compound 0.1 µM, first compound 0.0316 µM
[20] = second compound 0.1 µM, first compound 0.1 µM
[21] = second compound 0.1 µM, first compound 0.316 µM
[22] = second compound 0.1 µM, first compound 1 µM
[23] = second compound 0.1 µM, first compound 3.16 µM
[24] = second compound 0.1 µM, first compound 10 µM
[25] = second compound 0.316 µM, first compound 0.0316 µM
[26] = second compound 0.316 µM, first compound 0.1 µM
[27] = second compound 0.316 µM, first compound 0.316 µM
[28] = second compound 0.316 µM, first compound 1 µM
[29] = second compound 0.316 µM, first compound 3.16 µM
[30] = second compound 0.316 µM, first compound 10 µM
[31] = second compound 1 µM, first compound 0.0316 µM
[32] = second compound 1 µM, first compound 0.1 µM
[33] = second compound 1 µM, first compound 0.316 µM
[34] = second compound 1 µM, first compound 1 µM
[35] = second compound 1 µM, first compound 3.16 µM
[36] = second compound 1 µM, first compound 10 µM
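Further: spheroids exposed to agents for 7 days.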
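Wherever viability, T/C is given: 100% = DMSO vehicle wells.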

CC(C)NCC(C(=O)N1CCN(c2ncnc3c2C(C)CC3O)CC1)c1ccc(Cl)cc1 (stereo unspecified) + C=CC(=O)N1CCN(c2nc(OCC3CCCN3C)nc3c(F)c(-c4nc(N)cc(C)c4C(F)(F)F)c(Cl)cc23)C(C)C1
pIC50 (second compound 0.00316 µM): 6.24 | pIC50 (second compound 0.01 µM): 6.18 | pIC50 (second compound 0.0316 µM): 6.20 | pIC50 (second compound 0.1 µM): 6.19 | pIC50 (second compound 0.316 µM): 6.19 | pIC50 (second compound 1 µM): 6.16 | viability, T/C [1]: 97% | viability, T/C [2]: 77.6% | viability, T/C [3]: 56.9% | viability, T/C [4]: 44.7% | viability, T/C [5]: 28.1% | viability, T/C [6]: 21.6% | viability, T/C [7]: 96.4% | viability, T/C [8]: 78.8% | viability, T/C [9]: 56.2% | viability, T/C [10]: 46.5% | viability, T/C [11]: 31.6% | viability, T/C [12]: 20.8% | viability, T/C [13]: 100% | viability, T/C [14]: 79.9% | viability, T/C [15]: 61.9% | viability, T/C [16]: 40.4% | viability, T/C [17]: 33.3% | viability, T/C [18]: 23.3% | viability, T/C [19]: 87.3% | viability, T/C [20]: 74.6% | viability, T/C [21]: 62% | viability, T/C [22]: 42% | viability, T/C [23]: 31.6% | viability, T/C [24]: 21.2% | viability, T/C [25]: 103% | viability, T/C [26]: 82% | viability, T/C [27]: 58.5% | viability, T/C [28]: 44.2% | viability, T/C [29]: 29.8% | viability, T/C [30]: 18.5% | viability, T/C [31]: 104% | viability, T/C [32]: 97% | viability, T/C [33]: 61.4% | viability, T/C [34]: 44.9% | viability, T/C [35]: 25.8% | viability, T/C [36]: 15.1%

CC(=O)OC12COC1CC(O)C1(C)C(=O)C(O)C3=C(C)C(OC(=O)C(O)C(NC(=O)OC(C)(C)C)c4ccccc4)CC(O)(C(OC(=O)c4ccccc4)C21)C3(C)C (stereo unspecified) + C=CC(=O)N1CCN(c2nc(OCC3CCCN3C)nc3c(F)c(-c4nc(N)cc(C)c4C(F)(F)F)c(Cl)cc23)C(C)C1
pIC50 (second compound 0.00316 µM): > 7.50 | pIC50 (second compound 0.01 µM): > 7.50 | pIC50 (second compound 0.0316 µM): > 7.50 | pIC50 (second compound 0.1 µM): > 7.50 | pIC50 (second compound 0.316 µM): > 7.50 | pIC50 (second compound 1 µM): > 7.50 | viability, T/C [1]: 26.8% | viability, T/C [2]: 25.4% | viability, T/C [3]: 22.2% | viability, T/C [4]: 23.7% | viability, T/C [5]: 29.5% | viability, T/C [6]: 27.1% | viability, T/C [7]: 23.1% | viability, T/C [8]: 24.4% | viability, T/C [9]: 26.5% | viability, T/C [10]: 23.5% | viability, T/C [11]: 30.9% | viability, T/C [12]: 27.5% | viability, T/C [13]: 28.5% | viability, T/C [14]: 26.2% | viability, T/C [15]: 26.1% | viability, T/C [16]: 30.7% | viability, T/C [17]: 22.3% | viability, T/C [18]: 29% | viability, T/C [19]: 22.1% | viability, T/C [20]: 26.4% | viability, T/C [21]: 28.6% | viability, T/C [22]: 28.8% | viability, T/C [23]: 27.4% | viability, T/C [24]: 24.7% | viability, T/C [25]: 24.9% | viability, T/C [26]: 24% | viability, T/C [27]: 26.4% | viability, T/C [28]: 30.4% | viability, T/C [29]: 28.1% | viability, T/C [30]: 23.6% | viability, T/C [31]: 31.5% | viability, T/C [32]: 27.3% | viability, T/C [33]: 27.9% | viability, T/C [34]: 29.2% | viability, T/C [35]: 33.5% | viability, T/C [36]: 32%

O=C(c1ccc(F)c(F)c1Nc1ccc(I)cc1F)N1CC(O)([C@@H]2CCCCN2)C1 + C#Cc1c(F)ccc2cc(O)cc(-c3ncc4c(N5CC6CCC(C5)N6)nc(OCC56CCCN5CC(F)C6)nc4c3F)c12
pIC50 (second compound 0.0316 µM): 7.16 | pIC50 (second compound 0.1 µM): 7.21 | pIC50 (second compound 0.316 µM): 7.49 | pIC50 (second compound 1 µM): 7.48 | pIC50 (second compound 3.16 µM): 8.11 | pIC50 (second compound 10 µM): > 8.50 | viability, T/C (second compound 0.0316 µM, first compound 0.00316 µM): 103% | viability, T/C (second compound 0.0316 µM, first compound 0.01 µM): 75.2% | viability, T/C [13]: 60.5% | viability, T/C [14]: 45.4% | viability, T/C [15]: 35.6% | viability, T/C [16]: 24.1% | viability, T/C (second compound 0.1 µM, first compound 0.00316 µM): 91.8% | viability, T/C (second compound 0.1 µM, first compound 0.01 µM): 70.2% | viability, T/C [19]: 64% | viability, T/C [20]: 39.4% | viability, T/C [21]: 34.2% | viability, T/C [22]: 21.9% | viability, T/C (second compound 0.316 µM, first compound 0.00316 µM): 80.5% | viability, T/C (second compound 0.316 µM, first compound 0.01 µM): 66.1% | viability, T/C [25]: 53.1% | viability, T/C [26]: 31.6% | viability, T/C [27]: 28.2% | viability, T/C [28]: 22.3% | viability, T/C (second compound 1 µM, first compound 0.00316 µM): 66% | viability, T/C (second compound 1 µM, first compound 0.01 µM): 54.8% | viability, T/C [31]: 51.5% | viability, T/C [32]: 24.4% | viability, T/C [33]: 25.1% | viability, T/C [34]: 19.7% | viability, T/C (second compound 3.16 µM, first compound 0.00316 µM): 56.8% | viability, T/C (second compound 3.16 µM, first compound 0.01 µM): 47.9% | viability, T/C (second compound 3.16 µM, first compound 0.0316 µM): 33.8% | viability, T/C (second compound 3.16 µM, first compound 0.1 µM): 21.4% | viability, T/C (second compound 3.16 µM, first compound 0.316 µM): 22.6% | viability, T/C (second compound 3.16 µM, first compound 1 µM): 16.3% | viability, T/C (second compound 10 µM, first compound 0.00316 µM): 43.9% | viability, T/C (second compound 10 µM, first compound 0.01 µM): 38.3% | viability, T/C (second compound 10 µM, first compound 0.0316 µM): 18.1% | viability, T/C (second compound 10 µM, first compound 0.1 µM): 17.3% | viability, T/C (second compound 10 µM, first compound 0.316 µM): 6.81% | viability, T/C (second compound 10 µM, first compound 1 µM): 2.29%
